Blank lines part the entries; values can stand above or below the molecule they belong to.
Experiments:
B-RAF = B-RAF (Homo sapiens (Human), UniProt P15056); assay: Protein kinase enzymatic activity (Reaction Biology kinase hotspot), B-RAF; assay type: biochemical; details: for Inhibitory effect against enzymatic activity of B-RAF, in words: compared with GW5074 and vemurafenib; for IC50: read-out: Inhibitory effect against kinase activity of B-RAF (IC50)
Procedure: (§1) Reaction biology kinase hotspot service (http://www.reactionbiology.com) was used to measure IC50. In a final reaction volume of 25 μL, kinase (5 mU to 10 mU) was incubated with 25 mM Tris (pH 7.5), 0.02 mM EGTA, 0.66 mg/ml of myelin basic protein, 10 mM magnesium acetate, and [^33P-ATP] (specific activity of about 500 CPM/pmol, concentration as required). The reaction was initiated by addition of Mg-ATP mix. After incubation for 40 min at room temperature, the reaction was stopped by addition of 5 μl of a 3% phosphoric acid solution. 10 μL of the reaction was then spotted onto a P30 filtermat and washed three times for 5 minutes in 75 mM phosphoric acid and once in methanol prior to drying and scintillation counting.

V600E-B-RAF = V600E-B-RAF (Homo sapiens (Human), UniProt P15056, V600E); assay: Protein kinase enzymatic activity (Reaction Biology kinase hotspot), V600E-B-RAF; assay type: biochemical; details: for Inhibitory effect against enzymatic activity of V600E-RAF, in words: compared with GW5074 and vemurafenib; for IC50: read-out: Inhibitory effect against kinase activity of V600E-B-RAF (IC50)
V600E-B-RAF, sequence (P15056 whole entry V600E): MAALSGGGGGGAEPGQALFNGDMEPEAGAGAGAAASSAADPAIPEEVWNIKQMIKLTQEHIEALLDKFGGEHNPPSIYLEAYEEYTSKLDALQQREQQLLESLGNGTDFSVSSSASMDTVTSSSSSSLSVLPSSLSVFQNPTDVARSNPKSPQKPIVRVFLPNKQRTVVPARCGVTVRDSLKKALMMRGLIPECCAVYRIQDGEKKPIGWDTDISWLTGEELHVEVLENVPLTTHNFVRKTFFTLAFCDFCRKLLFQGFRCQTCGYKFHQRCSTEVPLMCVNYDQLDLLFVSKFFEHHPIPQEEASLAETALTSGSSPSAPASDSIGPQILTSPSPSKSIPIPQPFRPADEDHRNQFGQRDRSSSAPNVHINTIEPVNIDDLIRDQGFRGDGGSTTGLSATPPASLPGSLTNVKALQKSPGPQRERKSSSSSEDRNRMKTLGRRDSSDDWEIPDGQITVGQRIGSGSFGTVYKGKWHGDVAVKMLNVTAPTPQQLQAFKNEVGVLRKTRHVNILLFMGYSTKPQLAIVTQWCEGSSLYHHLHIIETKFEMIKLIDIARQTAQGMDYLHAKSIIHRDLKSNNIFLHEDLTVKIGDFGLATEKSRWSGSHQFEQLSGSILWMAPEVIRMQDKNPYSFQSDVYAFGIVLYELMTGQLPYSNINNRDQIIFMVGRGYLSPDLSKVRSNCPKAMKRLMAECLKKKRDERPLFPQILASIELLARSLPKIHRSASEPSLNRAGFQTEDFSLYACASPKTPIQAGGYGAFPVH
Procedure: as §1

C-RAF = C-RAF (Homo sapiens (Human), UniProt P04049); assay: Protein kinase enzymatic activity (Reaction Biology kinase hotspot), C-RAF; assay type: biochemical; details: for Inhibitory effect against enzymatic activity of C-RAF, in words: compared with GW5074 and vemurafenib; for IC50: read-out: Inhibitory effect against kinase activity of C-RAF (IC50)
C-RAF, sequence (P04049 whole entry): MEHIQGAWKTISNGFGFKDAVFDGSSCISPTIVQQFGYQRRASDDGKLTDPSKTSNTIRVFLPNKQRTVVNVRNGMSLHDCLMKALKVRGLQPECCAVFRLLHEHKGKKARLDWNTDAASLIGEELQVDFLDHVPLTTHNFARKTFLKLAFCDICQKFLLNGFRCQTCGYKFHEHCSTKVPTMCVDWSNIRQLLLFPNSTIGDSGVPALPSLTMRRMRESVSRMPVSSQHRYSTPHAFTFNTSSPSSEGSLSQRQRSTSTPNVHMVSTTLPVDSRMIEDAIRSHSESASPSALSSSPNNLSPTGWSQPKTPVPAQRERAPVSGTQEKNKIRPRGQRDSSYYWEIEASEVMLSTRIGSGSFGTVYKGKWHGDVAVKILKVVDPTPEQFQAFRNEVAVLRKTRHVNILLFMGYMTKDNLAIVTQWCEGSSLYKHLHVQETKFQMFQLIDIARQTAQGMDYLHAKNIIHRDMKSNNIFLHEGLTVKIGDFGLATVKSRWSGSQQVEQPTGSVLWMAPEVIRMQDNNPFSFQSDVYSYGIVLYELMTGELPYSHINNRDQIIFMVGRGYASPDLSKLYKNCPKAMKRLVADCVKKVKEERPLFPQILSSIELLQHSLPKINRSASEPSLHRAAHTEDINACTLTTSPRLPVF
Procedure: as §1

[1] = system: A375P cell line xenograft; assay: Tumor-inhibitory effects in melanoma xenograft mouse model; assay type: in vivo, nude mice
Procedure: In this experiment, A375P cell line which is a human-derived malignant melanoma cell line was subcutaneously administered to nude mice to prepare xenograft models, and the test material (compound 2II) was administered to the xenograft models to evaluate anti-cancer effects (G1: an excipient control group, G2: a group administered with 20 mg/kg/day of the test material, and G3: a group administered with 50 mg/kg/day of the test material).

B-RAF, sequence (P15056 whole entry): as the sequence (P15056 whole entry V600E) above, with E600V counted along it

Inhibitory effect against enzymatic activity of B-RAF, in words (B-RAF): excellent inhibitory effects
Inhibitory effect against enzymatic activity of V600E-RAF, in words (V600E-B-RAF): excellent inhibitory effects
Inhibitory effect against enzymatic activity of C-RAF, in words (C-RAF): excellent inhibitory effects
SMILES: O=S(=O)(NCCCNc1nccc(-c2c(-c3cccc(O)c3)nc3sccn23)n1)c1ccc(F)cc1 [Compound 31III, 4-Fluoro-N-(3-((4-(6-(3-hydroxylphenyl)imidazo[2,1-b]thiazol-5-yl)pyrimidin-2-yl)amino)propyl)benzenesulfonamide]

IC50 (V600E-B-RAF): 6.96 nM
SMILES: O=S(=O)(NCCNc1nccc(-c2c(-c3ccc(F)c(O)c3)nc3sccn23)n1)c1ccc(Cl)cc1 [Compound 43III, 4-chloro-N-(2-(4-(6-(4-fluoro-3-hydroxyphenyl)imidazo[2,1-b]thiazol-5-yl)pyrimidin-2-ylamino)ethyl)benzenesulfonamide]

IC50 (V600E-B-RAF): 0.37 nM
SMILES: O=S(=O)(NCCNc1nccc(-c2c(-c3ccc(F)c(O)c3)nc3occn23)n1)c1ccc(Cl)cc1 [65 IV, 4-chloro-N-(2-(4-(6-(4-fluoro-3-hydroxyphenyl)imidazo[2,1-b]oxazol-5-yl)pyrimidin-2-ylamino)ethyl)benzenesulfonamide]

IC50 (V600E-B-RAF): 1.89 nM
SMILES: COc1cc(-c2nc3sccn3c2-c2ccnc(NCCCNS(=O)(=O)c3ccc(Cl)cc3)n2)ccc1F [Compound 38III, 4-chloro-N-(3-(4-(6-(4-fluoro-3-methoxyphenyl)imidazo[2,1-b]thiazol-5-yl)pyrimidin-2-ylamino)propyl)benzenesulfonamide]

Inhibitory effect against enzymatic activity of B-RAF, in words (B-RAF): excellent inhibitory effects
Inhibitory effect against enzymatic activity of V600E-RAF, in words (V600E-B-RAF): excellent inhibitory effects
Inhibitory effect against enzymatic activity of C-RAF, in words (C-RAF): excellent inhibitory effects
IC50 (C-RAF): 2.95 nM
SMILES: CN1CCN(CCNc2nccc(-c3c(-c4cccc(O)c4)nc4occn34)n2)S1(=O)=O [Compound 1II, 2-(2-((4-(6-(3-Hydroxylphenyl)imidazo[2,1-b]oxazol-5-yl)pyrimidin-2-yl)amino)ethyl)-5-methyl-1,2,5-thiadiazolidine 1,1-dioxide]

Inhibitory effect against enzymatic activity of B-RAF, in words (B-RAF): excellent inhibitory effects
Inhibitory effect against enzymatic activity of V600E-RAF, in words (V600E-B-RAF): excellent inhibitory effects
Inhibitory effect against enzymatic activity of C-RAF, in words (C-RAF): excellent inhibitory effects
SMILES: O=S(=O)(NCCNc1nccc(-c2c(-c3cccc(O)c3)nc3sccn23)n1)c1ccc(F)cc1 [Compound 25III, 4-Fluoro-N-(2-((4-(6-(3-hydroxylphenyl)imidazo[2,1-b]thiazol-5-yl)pyrimidin-2-yl)amino)ethyl)benzenesulfonamide]

SMILES: COc1cc(-c2nc3sccn3c2-c2ccnc(NCCCNS(=O)(=O)c3ccc(F)cc3)n2)ccc1F [Compound 37III, 4-Fluoro-N-(3-((4-(6-(4-fluoro-3-methoxyphenyl)imidazo[2,1-b]thiazol-5-yl)pyrimidin-2-yl)amino)propyl)benzenesulfonamide]
IC50 (B-RAF): 8.8 nM
IC50 (V600E-B-RAF): 1.66 nM
IC50 (C-RAF): 13.8 nM

IC50 (V600E-B-RAF): 0.15 nM
SMILES: O=S(=O)(NCCNc1nccc(-c2c(-c3ccc(F)c(O)c3)nc3sccn23)n1)c1ccccc1 [Compound 46III, N-(2-(4-(6-(4-fluoro-3-hydroxyphenyl)imidazo[2,1-b]thiazol-5-yl)pyrimidin-2-ylamino)ethyl)benzenesulfonamide]

SMILES: CCN1CCN(CCNc2nccc(-c3c(-c4ccc(F)c(O)c4)nc4sccn34)n2)S1(=O)=O [Compound 31II]
IC50 (B-RAF): 4.19 nM
IC50 (V600E-B-RAF): 0.98 nM
IC50 (C-RAF): 7.83 nM

SMILES: CCN1CCN(CCNc2nccc(-c3c(-c4cccc(O)c4)nc4occn34)n2)S1(=O)=O [Compound 2II, 2-Ethyl-5-(2-((4-(6-(3-hydroxylphenyl)imidazo[2,1-b]oxazol-5-yl)pyrimidin-2-yl)amino)ethyl)-1,2,5-thiadiazolidine 1,1-dioxide]
Inhibitory effect against enzymatic activity of B-RAF, in words (B-RAF): excellent inhibitory effects
Inhibitory effect against enzymatic activity of V600E-RAF, in words (V600E-B-RAF): excellent inhibitory effects
Inhibitory effect against enzymatic activity of C-RAF, in words (C-RAF): excellent inhibitory effects
IC50 (C-RAF): 0.75 nM
General symptoms and deaths ([1]; 20 and 50 mg/kg/day, twice per week for 3 weeks): no deaths or no abnormalities in general symptoms were observed
Tumor size, difference between all experimental groups ([1]; G1, G2, G3): no significant difference
Body weight compared with control group (G1) ([1]; G3, 50 mg/kg/day, 14 days and 21 days after administration): significantly low
Increase of the tumor size ([1]; groups administered with 20 and 50 mg/kg/day): inhibited in a dose-dependent manner

IC50 (V600E-B-RAF): 0.05 nM
SMILES: COc1ccc(S(=O)(=O)NCCCNc2nccc(-c3c(-c4ccc(F)c(O)c4)nc4sccn34)n2)cc1 [Compound 50III, N-(3-(4-(6-(4-fluoro-3-hydroxyphenyl)imidazo[2,1-b]thiazol-5-yl)pyrimidin-2-ylamino)propyl)-4-methoxybenzenesulfonamide]

SMILES: Nc1cc(-c2nc3sccn3c2-c2ccnc(NCCCNS(=O)(=O)c3ccc(F)cc3)n2)ccc1F [Compound 52III, N-(3-((4-(6-(3-amino-4-fluorophenyl)imidazo[2,1-b]thiazol-5-yl)pyrimidin-2-yl)amino)propyl)-4-fluorobenzenesulfonamide]
IC50 (B-RAF): 2.68 nM
IC50 (V600E-B-RAF): 1.03 nM
IC50 (C-RAF): 5.41 nM

IC50 (V600E-B-RAF): 0.08 nM
SMILES: COc1ccc(S(=O)(=O)NCCCNc2nccc(-c3c(-c4ccc(F)c(O)c4)nc4occn34)n2)cc1 [72 IV, N-(3-(4-(6-(4-fluoro-3-hydroxyphenyl)imidazo[2,1-b]oxazol-5-yl)pyrimidin-2-ylamino)propyl)-4-methoxybenzenesulfonamide]

IC50 (V600E-B-RAF): 0.36 nM
SMILES: O=S(=O)(NCCNc1nccc(-c2c(-c3ccc(F)c(O)c3)nc3occn23)n1)c1ccc(F)cc1 [64 IV, 4-fluoro-N-(2-(4-(6-(4-fluoro-3-hydroxyphenyl)imidazo[2,1-b]oxazol-5-yl)pyrimidin-2-ylamino)ethyl)benzenesulfonamide]

IC50 (V600E-B-RAF): 0.36 nM
SMILES: O=S(=O)(NCCCNc1nccc(-c2c(-c3ccc(F)c(O)c3)nc3sccn23)n1)c1ccc(F)cc1 [Compound 42III, 4-Fluoro-N-(3-((4-(6-(4-fluoro-3-hydroxyphenyl)imidazo[2,1-b]thiazol-5-yl)pyrimidin-2-yl)amino)propyl)benzenesulfonamide]

IC50 (V600E-B-RAF): 0.15 nM
SMILES: O=S(=O)(NCCCNc1nccc(-c2c(-c3ccc(F)c(O)c3)nc3occn23)n1)c1ccc(Cl)cc1 [70 IV, 4-chloro-N-(3-(4-(6-(4-fluoro-3-hydroxyphenyl)imidazo[2,1-b]oxazol-5-yl)pyrimidin-2-ylamino)propyl)benzenesulfonamide]

IC50 (V600E-B-RAF): 0.27 nM
SMILES: O=S(=O)(NCCCNc1nccc(-c2c(-c3ccc(F)c(O)c3)nc3sccn23)n1)c1ccc(Cl)cc1 [Compound 48III, 4-chloro-N-(3-(4-(6-(4-fluoro-3-hydroxyphenyl)imidazo[2,1-b]thiazol-5-yl)pyrimidin-2-ylamino)propyl)benzenesulfonamide]

IC50 (V600E-B-RAF): 0.16 nM
SMILES: O=S(=O)(NCCCNc1nccc(-c2c(-c3ccc(F)c(O)c3)nc3occn23)n1)c1ccccc1 [73 IV, N-(3-(4-(6-(4-fluoro-3-hydroxyphenyl)imidazo[2,1-b]oxazol-5-yl)pyrimidin-2-ylamino)propyl)benzenesulfonamide]

IC50 (V600E-B-RAF): 11.3 nM
SMILES: COc1cc(-c2nc3occn3c2-c2ccnc(NCCCNS(=O)(=O)c3ccc(Cl)cc3)n2)ccc1F [60 IV, 4-chloro-N-(3-(4-(6-(4-fluoro-3-methoxyphenyl)imidazo[2,1-b]oxazol-5-yl)pyrimidin-2-ylamino)propyl)benzenesulfonamide]
